Laboratory results reported in ChEMBL document CHEMBL1201862, “PubChem BioAssay data set” (2004).
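Where inhibition never reached the appropriate level, the endpoint shown equals the highest concentration tested. Otherwise, values were interpolated linearly from a five-concentration, 48-hour dose response in 96-well plates. GI50 marks 50% less growth.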 Active and inactive are the calls of the source. Cut-off read from the data, not from the text of the source: active = GI50 up to about 1.1 µM and inactive = higher.

Columns and labels:
Test in all cases: NCI-60 cell line screen, 48 h
[1] = system: BT-549
[2] = system: UACC-62
[3] = system: SNB-19
[4] = system: NCI-H226
[5] = system: MDA-N
[6] = system: MDA-MB-435
[7] = system: HCT-116
[8] = system: U-251
[9] = system: OVCAR-8
[10] = system: SF-268
[11] = system: UACC-257
[12] = system: SF-295
[13] = system: CAKI-1
[14] = system: Hs-578T
[15] = system: OVCAR-3
[16] = system: DU-145
[17] = system: SK-OV-3
[18] = system: MDA-MB-231
[19] = system: A498
[20] = system: KM12
[21] = system: RPMI-8226
[22] = system: HT-29
[23] = system: UO-31
[24] = system: 786-0
[25] = system: SW-620
[26] = system: MCF7
[27] = system: IGROV-1
[28] = system: Malme-3M
[29] = system: SN12C
[30] = system: T47D
[31] = system: HCC 2998
[32] = system: PC-3
[33] = system: M14
[34] = system: SK-MEL-28
[35] = system: SK-MEL-5
[36] = system: NCI/ADR-RES
[37] = system: OVCAR-5
[38] = system: HCT-15
[39] = system: EKVX
[40] = system: SNB-75
[41] = system: ACHN
[42] = system: CCRF-CEM
[43] = system: HOP-92
[44] = system: A549
[45] = system: SK-MEL-2
[46] = system: NCI-H23
[47] = system: COLO 205
[48] = system: NCI-H460
[49] = system: HOP-62
[50] = system: OVCAR-4
[51] = system: TK-10
[52] = system: RXF 393
[53] = system: LOX IMVI
[54] = system: HL-60
[55] = system: MOLT-4
[56] = system: SF-539
[57] = system: K562
[58] = system: NCI-H522
[59] = system: SR

COc1ccc2[nH]c3c(c2c1)CC(=S)N1CCCC(CC3=O)C1 (centres undefined)
GI50 [1]: > 100 µM (inactive)
GI50 [2]: 39 µM (inactive)
GI50 [3]: 35.6 µM (inactive)
GI50 [4]: 91.6 µM (inactive)
GI50 [5]: 45.2 µM (inactive)
GI50 [6]: 46.3 µM (inactive)
GI50 [7]: 29.4 µM (inactive)
GI50 [8]: 33.3 µM (inactive)
GI50 [9]: 93.3 µM (inactive)
GI50 [10]: 45 µM (inactive)
GI50 [11]: 44.9 µM (inactive)
GI50 [12]: 39.7 µM (inactive)
GI50 [13]: 91 µM (inactive)
GI50 [14]: 44 µM (inactive)
GI50 [15]: 45.8 µM (inactive)
GI50 [16]: 62.4 µM (inactive)
GI50 [17]: 90.8 µM (inactive)
GI50 [18]: 50.2 µM (inactive)
GI50 [19]: 43.1 µM (inactive)
GI50 [20]: 25.4 µM (inactive)
GI50 [21]: 64.9 µM (inactive)
GI50 [22]: 45.4 µM (inactive)
GI50 [23]: 63.8 µM (inactive)
GI50 [24]: 58.2 µM (inactive)
GI50 [25]: 52.7 µM (inactive)
GI50 [26]: 34.3 µM (inactive)
GI50 [27]: 64.4 µM (inactive)
GI50 [28]: 43.3 µM (inactive)
GI50 [29]: 63 µM (inactive)
GI50 [30]: 48.9 µM (inactive)
GI50 [31]: 35.6 µM (inactive)
GI50 [32]: 37.2 µM (inactive)
GI50 [33]: 45.9 µM (inactive)
GI50 [34]: 86.9 µM (inactive)
GI50 [35]: 37.1 µM (inactive)
GI50 [36]: 63.5 µM (inactive)
GI50 [37]: 64.9 µM (inactive)
GI50 [38]: 57.7 µM
GI50 [39]: 37.8 µM (inactive)
GI50 [40]: 52.4 µM (inactive)
GI50 [41]: 38.8 µM (inactive)
GI50 [42]: 50.2 µM (inactive)
GI50 [43]: > 100 µM (inactive)
GI50 [44]: 32.4 µM (inactive)
GI50 [45]: 29.3 µM (inactive)
GI50 [46]: 47.8 µM (inactive)
GI50 [47]: 31.3 µM (inactive)
GI50 [48]: 31.8 µM (inactive)
GI50 [49]: 87.3 µM (inactive)
GI50 [50]: 58.3 µM (inactive)
GI50 [51]: > 100 µM (inactive)
GI50 [52]: 20.7 µM (inactive)

Cc1nc2cc(C(F)(F)F)ccc2[nH]c1=O
GI50 [1]: > 100 µM (inactive)
GI50 [2]: 87.7 µM (inactive)
GI50 [3]: > 100 µM (inactive)
GI50 [4]: > 100 µM (inactive)
GI50 [53]: > 100 µM (inactive)
GI50 [5]: > 100 µM (inactive)
GI50 [6]: > 100 µM (inactive)
GI50 [7]: > 100 µM (inactive)
GI50 [8]: > 100 µM (inactive)
GI50 [9]: > 100 µM (inactive)
GI50 [10]: > 100 µM (inactive)
GI50 [11]: > 100 µM (inactive)
GI50 [12]: > 100 µM (inactive)
GI50 [13]: > 100 µM (inactive)
GI50 [14]: 21.9 µM (inactive)
GI50 [15]: > 100 µM (inactive)
GI50 [16]: > 100 µM (inactive)
GI50 [17]: > 100 µM (inactive)
GI50 [18]: > 100 µM (inactive)
GI50 [19]: > 100 µM (inactive)
GI50 [20]: > 100 µM (inactive)
GI50 [21]: > 100 µM (inactive)
GI50 [54]: > 100 µM (inactive)
GI50 [22]: > 100 µM (inactive)
GI50 [23]: > 100 µM (inactive)
GI50 [24]: > 100 µM (inactive)
GI50 [25]: > 100 µM (inactive)
GI50 [26]: > 100 µM (inactive)
GI50 [28]: > 100 µM (inactive)
GI50 [29]: > 100 µM (inactive)
GI50 [30]: 45.5 µM (inactive)
GI50 [31]: > 100 µM (inactive)
GI50 [32]: > 100 µM (inactive)
GI50 [33]: > 100 µM (inactive)
GI50 [34]: > 100 µM (inactive)
GI50 [55]: > 100 µM (inactive)
GI50 [35]: > 100 µM (inactive)
GI50 [36]: > 100 µM (inactive)
GI50 [37]: > 100 µM (inactive)
GI50 [38]: > 100 µM
GI50 [56]: > 100 µM (inactive)
GI50 [39]: 7.08 µM (inactive)
GI50 [40]: > 100 µM (inactive)
GI50 [41]: > 100 µM (inactive)
GI50 [42]: > 100 µM (inactive)
GI50 [43]: > 100 µM (inactive)
GI50 [44]: > 100 µM (inactive)
GI50 [45]: > 100 µM (inactive)
GI50 [46]: > 100 µM (inactive)
GI50 [57]: > 100 µM (inactive)
GI50 [47]: > 100 µM (inactive)
GI50 [48]: > 100 µM (inactive)
GI50 [49]: > 100 µM (inactive)
GI50 [50]: > 100 µM (inactive)
GI50 [51]: > 100 µM (inactive)
GI50 [52]: > 100 µM (inactive)

CC(C)=CCN1CC(C)C(=O)Nc2cc(Cl)ccc21 (centres undefined)
GI50 [1]: 18.7 µM (inactive)
GI50 [3]: 28.5 µM (inactive)
GI50 [4]: 15.7 µM (inactive)
GI50 [53]: 16.2 µM (inactive)
GI50 [5]: 26 µM (inactive)
GI50 [6]: 23.4 µM (inactive)
GI50 [7]: 16.2 µM (inactive)
GI50 [8]: 27.4 µM (inactive)
GI50 [9]: 29.7 µM (inactive)
GI50 [10]: 35.2 µM (inactive)
GI50 [11]: 13.3 µM (inactive)
GI50 [12]: 27.1 µM (inactive)
GI50 [13]: 18.5 µM (inactive)
GI50 [14]: 36.5 µM (inactive)
GI50 [15]: 15.1 µM (inactive)
GI50 [16]: 30 µM (inactive)
GI50 [17]: 24.8 µM (inactive)
GI50 [18]: 22 µM (inactive)
GI50 [19]: 33.3 µM (inactive)
GI50 [58]: 17.3 µM (inactive)
GI50 [20]: 25.2 µM (inactive)
GI50 [21]: 28.8 µM (inactive)
GI50 [54]: 47.8 µM (inactive)
GI50 [22]: 19.2 µM (inactive)
GI50 [23]: 28.6 µM (inactive)
GI50 [24]: 19.2 µM (inactive)
GI50 [25]: 26.7 µM (inactive)
GI50 [26]: 18.7 µM (inactive)
GI50 [27]: 24.3 µM (inactive)
GI50 [28]: 25.1 µM (inactive)
GI50 [29]: 15.9 µM (inactive)
GI50 [30]: 24.9 µM (inactive)
GI50 [31]: 28.5 µM (inactive)
GI50 [32]: 18.6 µM (inactive)
GI50 [33]: 23.2 µM (inactive)
GI50 [34]: 43.3 µM (inactive)
GI50 [55]: > 100 µM (inactive)
GI50 [35]: 13.6 µM (inactive)
GI50 [37]: 34 µM (inactive)
GI50 [38]: 29.9 µM
GI50 [56]: 23.5 µM (inactive)
GI50 [39]: 26.2 µM (inactive)
GI50 [41]: 25 µM (inactive)
GI50 [42]: 29.4 µM (inactive)
GI50 [43]: 10.8 µM (inactive)
GI50 [59]: > 100 µM (inactive)
GI50 [44]: 30.2 µM (inactive)
GI50 [45]: 16.2 µM (inactive)
GI50 [46]: 21.6 µM (inactive)
GI50 [57]: 96.8 µM (inactive)
GI50 [47]: 19.8 µM (inactive)
GI50 [48]: 20.5 µM (inactive)
GI50 [49]: 26.6 µM (inactive)
GI50 [50]: 25.6 µM (inactive)
GI50 [51]: 19.3 µM (inactive)
GI50 [52]: 28.4 µM (inactive)
